Source: patent EP0554004A2, “Cephem compounds and antibacterial agents” (KATAYAMA SEIYAKUSYO CO. Ltd., priority 1992, dated 1993)
≈ marks a conversion by molar mass, not a printed value.

What was measured:
Experiment in all cases: MIC against standard strains (Test Example 3)
Type in all cases: cell-based
M. Morganii IFO3848 = details: Morganella morganii; M. Morganii IFO3848 (Test Example 3); read-out: MIC
Procedure, shortened: (§1)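 Agar dilution MIC; Mueller-Hinton agar; inoculum 1 x 10^6 CFU/ml from overnight 37°C MH broth culture; read after overnight incubation at 37°C; MIC = lowest concentration with no growth.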

B. subtilis ATCC6633 = details: Bacillus subtilis; B. subtilis ATCC6633 (Test Example 3); read-out: MIC
Procedure, shortened: as §1

A. faecalis ATCC3750 = details: Alcaligenes faecalis; A. faecalis ATCC3750 (Test Example 3); read-out: MIC
Procedure, shortened: as §1

P. aeruginosa NCTC10490 = details: Pseudomonas aeruginosa; P. aeruginosa NCTC10490 (Test Example 3); read-out: MIC
Procedure, shortened: as §1

S. epidemidis IAM1296 = S. epidemidis IAM1296 (Test Example 3); read-out: MIC
Procedure, shortened: as §1

S. aureus 195 = details: Staphylococcus aureus; S. aureus 195 (MRSA) (Test Example 3); read-out: MIC
Procedure, shortened: as §1

P. vulugaris OX-19 = P. vulugaris OX-19 (Test Example 3); read-out: MIC
Procedure, shortened: as §1

P. mirabilis IFO3849 = details: Proteus mirabilis; P. mirabilis IFO3849 (Test Example 3); read-out: MIC
Procedure, shortened: as §1

E. coli CSH2 (RE45) = details: Escherichia coli
Procedure, shortened: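 Overnight Mueller-Hinton broth cultures grown at 37°C were diluted to 1 x 10^6 CFU/ml in the same broth and inoculated onto Mueller-Hinton agar containing the test agent. After overnight incubation at 37°C, MIC was taken as the lowest concentration inhibiting growth.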

E. cloacae ATCC13407 = details: Enterobacter cloacae; E. cloacae ATCC13407 (Test Example 3); read-out: MIC
Procedure, shortened: as §1

K. pneumoniae No. 42 = details: Klebsiella pneumoniae; K. pneumoniae No. 42 (Test Example 3); read-out: MIC
Procedure, shortened: as §1

K. pneumoniae IFO3317 = details: Klebsiella pneumoniae; K. pneumoniae IFO3317 (Test Example 3); read-out: MIC
Procedure, shortened: as §1

How did the MIC (M. Morganii IFO3848) turn out when `CO[C@@]1(NC(=O)CSC(F)F)C(=O)N2C(C(=O)O)=C(CSc3nnnn3CCO)CO[C@@H]21` [FMOX, flomoxef, reference compound] was run?
Its MIC is 0.39 µg/mL (≈ 0.786 µM).

And the MIC (B. subtilis ATCC6633)?
The MIC was 0.2 µg/mL (≈ 0.403 µM).

And the MIC (A. faecalis ATCC3750)?
The MIC was 0.1 µg/mL (≈ 0.201 µM).

And the MIC (P. aeruginosa NCTC10490)?
The MIC was over 100 µg/mL.

What about the MIC (S. epidemidis IAM1296) of the same molecule?
The MIC was 0.2 µg/mL (≈ 0.403 µM).

What about the MIC (S. aureus 195) of the same molecule?
Its MIC is 3.13 µg/mL (≈ 6.3 µM).

What about the MIC (P. vulugaris OX-19) of the same molecule?
The MIC was 0.39 µg/mL (≈ 0.786 µM).

What about the MIC (P. mirabilis IFO3849) of the same molecule?
The MIC was 0.2 µg/mL (≈ 0.403 µM).

And the MIC (E. coli CSH2 (RE45))?
Its MIC is 0.05 µg/mL (≈ 0.101 µM).

What about the MIC (E. cloacae ATCC13407) of the same molecule?
Its MIC is 25 µg/mL (≈ 50.4 µM).

What about the MIC (K. pneumoniae No. 42) of the same molecule?
The MIC was 0.05 µg/mL (≈ 0.101 µM).

And the MIC (K. pneumoniae IFO3317)?
Its MIC is 0.025 µg/mL (≈ 0.0504 µM).
